Measured values from patent publication US20150359798A1, “PIPERAZINYL DERIVATIVE REDUCES HIGH-FAT DIET-INDUCED ACCUMULATION OF FAT IN THE LIVERS, […]” (priority 2011, published 2015).

What was measured:
LXRα = LXRα expression in HepG2 cells; assay type: cell-based; conditions: HepG2, 10^−9-10^−5 M
Description: HepG2 cells were treated with various concentrations of drugs for 24 hours. […] All of the fractionated protein solutions were stored at −80° C. until analysis. To measure the expression levels of proteins by drugs, the total cell protein was extracted after incubation with treatments for 24 hours and then Western blotting analysis was performed as described previously.

PPARγ = PPARγ expression in liver of HFD mice (8 weeks); assay type: in vivo; conditions: animals treated with HFD
Description: (§1) In the 8 week experiment, C57BL/6J male mice (21-22 g), after fasting, were fed a HFD as a model of hyperlipidemia for 8 weeks. During the 2 month experiments, mice fasted for one night before the experiment was changed from a standard diet (STD) to a HFD and then the mice were randomly divided into 5 groups, including 2 control and 3 treatment groups. Six mice were used in each group. […] Liver from the protection group supplemented with KMUP-1 HCl (1 mg/kg/day) were used to determine the HMG CoA reductase expression.
(§2) For the expression of SR-B1, HMGR, PPARγ and ROCK isolated liver tissues were cut into small chips and placed into an extraction buffer (Tris 10 mM, pH 7.0, NaCl 140 mM, PMSF 2 mM, DTT 5 mM, NP-40 0.5%, pepstatin A 0.05 mM and leupeptin 0.2 mM) for hepatic protein extraction, and centrifuged at 20,000 g for 30 minutes. The obtained protein extract was boiled to a ratio of 4:1 with a sample buffer (Tris 100 mM, pH 6.8, glycerol 20%, SDS 4% and bromophenol blue 0.2%). Electrophoresis was performed using 10% SDS-polyacrylamide gel (1 hour, 100 V, 40 mA, 20 μg protein per lane).
(§3) Separated proteins, after 3 repeated centrifugations to discard up-layer tissue lipid inpurity, were transferred to PVDF membranes treated with 5% fat-free milk powder to block the nonspecific IgGs (90 minutes, 100 V) and incubated for 1 hour with specific protein antibody. […]

TNF-α = experiment: IHC staining of TNF-α in epididymal fat pads; assay type: in vivo, mice; conditions: protection, 2.5 mg/kg/day
Description: (§4) For IHC of MMP-9/TNFα, HSL/p-HSL/ATGL and eNOS/IL-10, antigen retrieval of de-paraffinated sections was performed in Dako target retrieval solution, pH 9.0, in a vegetable steamer followed by the quenching of endogenous peroxidase activity with 3.0% H2O2 in methanol. Sections were then incubated with specific primary antibodies overnight at 4° C. in a humidified chamber. The antibodies used included rabbit polyclonal anti-eNOS (1:50 dilution) (Abcam, Cambridge, UK) or rabbit monoclonal anti-cleaved caspase-3 (1:50 dilution) (Cell Signaling, USA). The sections were then examined using a DAKO REAL EnVision™ Detection System kit (DAKO, Carpinteria, Calif.) and counterstained with hematoxylin. Images were obtained through a Nikon Eclipse TE200-S microscope.

ROCK II [1] = experiment: ROCK II expression in HepG2 cells; assay type: cell-based
Description: (§5) HepG2 cells were treated with various concentrations of drugs for 24 hours. Reactions were terminated by washing twice with cold PBS, and the cells were then harvested, Proteins in the whole-cell lysate were homogenized in an ice-cold lysis buffer and a protease inhibitor (Sigma-Aldrich, St. Louis, Mo., U.S.A.). The homogenate was centrifuged at 90, 000 g for 15 minutes at 4° C., and supernatant was recovered as the total cellular protein. Cytosolic and membrane fractions of HepG2 cells were prepared using a. CNM (Cytosol Nuclear Membrane) compartment protein extraction kit (BioChain Institute Inc., Hayward, Calif., U.S.A.) according to the manufacturer's instructions. All of the fractionated protein solutions were stored at -80° C. until analysis. To measure the expression levels of proteins by drugs, the total cell protein was extracted after incubation with treatments for 24 hours and then Western blotting analysis was performed as described previously.

ROCK II [2] = experiment: ROCK II expression in liver of HFD mice (8 weeks); assay type: in vivo; conditions: animals treated with HFD
Description: as §1, §2, §3

p-HSL = experiment: Table 3 p-HSL (% of control); assay type: cell-based; conditions: control group = 100 (%)
HMG CoA reductase = HMG CoA reductase expression in HepG2 cells (Western blotting); assay type: cell-based
Description: The HepG2 hepatoma cell line was purchased from the American Type Culture Collection (ATCC; Manassas, Va., U.S.A.). Cells were cultured in DMEM. The culture media was supplemented with 5% heat-Inactivated FBS, penicillin (100 U/mL) and streptomycin (100 μg/mL). Cells were grown in a humidified atmosphere containing 5% CO2 at 37° C., in which the oxygen tension in the incubator was held at 140 mmHg (20% O2, v/v; normoxic conditions).
as §5, with “−80°” for “-80°”

PKG = experiment: Hepatic PKG expression (14-week experiment); assay type: in vivo, mice; conditions: drinking KMUP-1; protection and treatment groups
IL-10 = experiment: IHC staining of IL-10 in epididymal fat pads; assay type: in vivo, mice; conditions: protection, 2.5 mg/kg/day
Description: as §4

Cn1c(=O)c2c(ncn2CCN2CCN(c3ccccc3Cl)CC2)n(C)c1=O [KMUP-1, 7-[2-[4-(2-chlorophenyl)piperazinyl]ethyl]-1,3-dimethyl xanthine]
LXRα expression (LXRα): concentration-dependently increased | PPARγ in liver (PPARγ): activated | IHC staining of TNF-α in epididymal fat pads (TNF-α): inhibited | ROCK II protein expression (ROCK II [1]; HepG2, 10^−9-10^−5 M): concentration-dependently reduced | Rp-8-pCPT-cGMPS-increased ROCK II expression (ROCK II [1]; HepG2, combination with KMUP-1 10 μM): inhibited | GGPP- and FPP-increased RhoA/ROCK II expression (ROCK II [1]; HepG2, in the presence of exogenous GGPP and FPP, 10^−9-10^−5M): attenuated | ROCK II in liver (ROCK II [2]): inactivated | p-HSL (p-HSL; 0.1 μM): 120.7 ± 15.3% | p-HSL (p-HSL; 1.0 μM): 138.6 ± 14.7% | p-HSL (p-HSL; 10 μM): 144.6 ± 12.3% | mevalonate (100 μM)-inhibited HMG CoA reductase expression (HMG CoA reductase; HepG2, 10^−5M): prevented | HMG CoA reductase expression (HMG CoA reductase; HepG2, serum/vehicle-containing medium, 10^−9-10^−5M, 24 hours): concentration-dependently increased | hepatic PKG expression (PKG): promote | IHC staining of IL-10 in epididymal fat pads (IL-10): increased
